Like-named read-outs stand apart in the source and are kept apart here.
Key:
Experiment in all cases: IncuCyte live cell imaging of cell viability, Red-labeled cell line
Assay type in all cases: cell-based
OCI-AML2 = conditions: Homo sapiens, read-out: Inhibition of Cell Viability EC50
Procedure: (§1) Derivation of Red-labeled Acute Myeloid Leukemia Cell Lines: Twelve cell lines, including AML-193, HL-60, KG-1, ML-2, MOLM-13, MV-4-11, NOMO-1, OCI-AML2, OCI-AML3, SIG-M5, TF-1, and THP-1, were stably transduced with Red lentivirus. Cells were plated in 6-well plates in growth media, incubated with 8 µg/mL polybrene (EMD Millipore Cat no. TR-1003-G) followed by infection with CellPlayer™ NucLight™ Red-lentiviral particles (Essen Biosciences Cat no. 4478) at a multiplicity of infectivity (MOI) of 0.5 to 2.5 for 24 hours. MOI refers to the ratio of virus particles to cells. Virus-containing media was replaced with fresh growth media and incubated for an additional 24 to 48 hours, followed by selection with Zeocin (500 to 2000 μg/mL), a derivative of bleomycin (Life Technologies-Invitrogen Cat no. R250-01). Cells were selected with fresh Zeocin every 3 to 4 days for 3 to 8 weeks. Cells were periodically viewed using fluorescent microscopy for nuclear-restricted red fluorescence. Zeocin selection was terminated once the population was confirmed to stably fluoresce red. All Red-labeled cell lines were acclimated to EMEM containing 20% FBS, with or without GM-CSF supplementation, allowing for optimal live cell imaging.
(§2) Incubation of Cell Cultures with Compound 1: Compound 1 was provided for studies by Celgene chemistry group at a stock concentration of 30 mM in 20 μL dimethyl sulfoxide (DMSO) frozen. Costar 96-well cell culture plates (Corning Cat no. 3595) were coated with 100 μL of 10 µg/mL fibronectin (Sigma-Aldrich Cat no. F1141) for 4 hours at 37° C. and immediately used or refrigerated overnight for later use. Cells (3000 to 6000 cells) were plated in growth medi in fibronectin-coated 96-well plates and incubated for a minimum of a few hours to overnight. Cells were incubated with a 12-point concentration response in triplicate with Compound 1 ([…]) including DMSO and Media controls. A 3-fold serial dilution of Compound 1 starting from a concentration of 200 μM in 0.6% DMSO (diluted in Media) was performed. For most sensitive cell lines, a 3-fold serial dilution of Compound 1 starting from a concentration of 20 μM in 0.6% DMSO (diluted in media) was performed. A volume of 5 μL or 10 μL for each dilution was added to 100 μL or 200 μL cells, respectively (0.3% DMSO final) and incubated for live cell imaging.
(§3) Live Cell Imaging on IncuCyte Zoom: Following incubation of cells with Compound 1, diluted Caspase 3/7 reagent (Essen Biosciences Cat no. 4440) is added to each well. The Caspase-3/7 reagent couples the activated caspase-3/7 recognition motif (DEVD) to NucView™488, a DNA intercalating dye. The cleavage of substrate by activated caspase-3/7 results in the release of the DNA dye and green fluorescent staining of nuclear DNA. This allows imaging of cells undergoing caspase-3/7 mediated apoptosis over time. Caspase-3/7 activation was quantified using the IncuCyte™ ZOOM basic analyzer. Red-labeled cell lines were also imaged over time using the IncuCyte™ ZOOM basic analyzer, for determination of both cell doubling time and Compound 1 effect on cell viability. Experiments were performed at least two times in each cell line.
(§4) Next, a 4 parameter log-logistic model was used to determine relative EC50 at each time point by the ‘drm’ function from the R ‘drc’ package (Ritz C, Streibig J C. Bioassay Analysis using R. J. Statist. Software 2005; 12(5):1-22). Goodness of fit was measured by R squared (coefficient of determination or the amount of variation explained by the model fit) of ≥80%, and EC50 parameter was assessed by having a ratio of standard error to the parameter of ≤40%, and the presence of at least one concentration point above and below the reported EC50.
(§5) Twelve Red-labeled human AML cell lines, established as described above, were incubated with Compound 1 dose range (0 to 10 μM) and Red fluorescence or Object count was imaged over time, as described above. […]

KG-1 = conditions: Homo sapiens, Red-labeled KG-1, read-out: Inhibition of Cell Viability EC50
Procedure: as §1, §2, §3, §4, §5

THP-1 = conditions: Homo sapiens; Red-labeled THP-1; 96 hr; read-out: Inhibition of Cell Viability EC50
Procedure: as §1, §2, §3, §4, §5

ML-2 = conditions: Homo sapiens, Red-labeled ML-2, read-out: Inhibition of Cell Viability EC50
Procedure: as §1, §2, §3, §4, §5

HL-60 = conditions: Homo sapiens, Red-labeled HL-60, read-out: Inhibition of Cell Viability EC50
Procedure: as §1, §2, §3, §4, §5

AML-193 = conditions: Homo sapiens, Red-labeled AML-193, read-out: Inhibition of Cell Viability EC50
Procedure: as §1, §2, §3, §4, §5

MOLM-13 = conditions: Homo sapiens, Red-labeled MOLM-13, read-out: Inhibition of Cell Viability EC50
Procedure: as §1, §2, §3, §4, §5

SIG-M5 = conditions: Homo sapiens, read-out: Inhibition of Cell Viability EC50
Procedure: as §1, §2, §3, §4, §5

TF-1 = conditions: Homo sapiens, Red-labeled TF-1, read-out: Inhibition of Cell Viability EC50
Procedure: as §1, §2, §3, §4, §5

Nomo-1 = conditions: Homo sapiens, Red-labeled NOMO-1, read-out: Inhibition of Cell Viability EC50
Procedure: as §1, §2, §3, §4, §5

OCI-AML3 = conditions: Homo sapiens, read-out: Inhibition of Cell Viability EC50
Procedure: as §1, §2, §3, §4, §5

MV4-11 = conditions: Homo sapiens, Red-labeled MV4-11, read-out: Inhibition of Cell Viability EC50
Procedure: as §1, §2, §3, §4, §5

Compound: O=C1CCC(N2Cc3cc(CNC(=O)C(F)(F)c4ccc(Cl)cc4)ccc3C2=O)C(=O)N1 (stereo not drawn) [Compound 1, 2-(4-chlorophenyl)-N-((2-(2,6-dioxopiperidin-3-yl)-1-oxoisoindolin-5-yl)methyl)-2,2-difluoroacetamide]
- EC50 (OCI-AML2; 24 hr): 387 nM
- EC50 (OCI-AML2; 48 hr): 83 nM
- EC50 (OCI-AML2; 72 hr): 42 nM
- EC50 (OCI-AML2; 96 hr): 40 nM
- EC50 (KG-1; 48 hr): 7 nM
- EC50 (KG-1; 72 hr): 7 nM
- EC50 (KG-1; 96 hr): 7 nM
- EC50 (THP-1): 61 nM
- EC50 (ML-2; 72 hr): 4 nM
- EC50 (ML-2; 96 hr): 4 nM
- EC50 (HL-60; 48 hr): 9 nM
- EC50 (HL-60; 72 hr): 7 nM
- EC50 (HL-60; 96 hr): 6 nM
- EC50 (AML-193; 24 hr): 10 nM
- EC50 (AML-193; 48 hr): 4 nM
- EC50 (AML-193; 72 hr): 3 nM
- EC50 (AML-193; 96 hr): 2 nM
- EC50 (MOLM-13; 48 hr): 143 nM
- EC50 (MOLM-13; 72 hr): 208 nM
- EC50 (MOLM-13; 96 hr): 248 nM
- EC50 (SIG-M5; 72 hr): 156 nM
- EC50 (SIG-M5; 96 hr): 178 nM
- EC50 (TF-1; 48 hr): 30 nM
- EC50 (TF-1; 72 hr): 36 nM
- EC50 (TF-1; 96 hr): 58 nM
- EC50 (Nomo-1; 48 hr): 19 nM
- EC50 (Nomo-1; 72 hr): 17 nM
- EC50 (Nomo-1; 96 hr): 17 nM
- EC50 (OCI-AML3; OCI-AML-3, 72 hr): 180 nM
- EC50 (OCI-AML3; OCI-AML-3, 96 hr): 186 nM
- EC50 (MV4-11; 48 hr): 40 nM
- EC50 (MV4-11; 72 hr): 27 nM
- EC50 (MV4-11; 96 hr): 26 nM
